Results from US8962854B2, “Luminescent substrate for luciferase” (The University of Electro-Communications, priority 2011, dated 2015).

Experiments:
firefly luciferase = firefly luciferase (Photinus pyralis, UniProt P08659); test: Bioluminescent emission spectrum measurement; assay type: biochemical; details: ATP-Mg
Experimental: In a 200 μL polystyrene tube, potassium phosphate buffer solution (0.5 M, pH 8.0, 20 μl), substrate solution (2.5 mM, 20 μl), enzyme solution (20 μl), to and ATP-Mg solution (10 mM, 40 μl) were mixed, and emission spectrum measurement was performed. An enzyme solution with a concentration of 17 μM was used. Enzymes with a concentration of 1.7 μM for the firefly luciferin and of 170 μM for the phenol-type luciferin, however, were used. The exposure time for emission spectrum measurement was 60 seconds. For the firefly luciferin, however, the time was five seconds.

[1] = University of Tokyo luciferin derivative; cited from earlier work
[2] = reaction with firefly luciferase, substrate solution 2.5 mM, enzyme solution 17 μM, pH 8.0, exposure 60 seconds

firefly luciferase, sequence (P08659 whole entry): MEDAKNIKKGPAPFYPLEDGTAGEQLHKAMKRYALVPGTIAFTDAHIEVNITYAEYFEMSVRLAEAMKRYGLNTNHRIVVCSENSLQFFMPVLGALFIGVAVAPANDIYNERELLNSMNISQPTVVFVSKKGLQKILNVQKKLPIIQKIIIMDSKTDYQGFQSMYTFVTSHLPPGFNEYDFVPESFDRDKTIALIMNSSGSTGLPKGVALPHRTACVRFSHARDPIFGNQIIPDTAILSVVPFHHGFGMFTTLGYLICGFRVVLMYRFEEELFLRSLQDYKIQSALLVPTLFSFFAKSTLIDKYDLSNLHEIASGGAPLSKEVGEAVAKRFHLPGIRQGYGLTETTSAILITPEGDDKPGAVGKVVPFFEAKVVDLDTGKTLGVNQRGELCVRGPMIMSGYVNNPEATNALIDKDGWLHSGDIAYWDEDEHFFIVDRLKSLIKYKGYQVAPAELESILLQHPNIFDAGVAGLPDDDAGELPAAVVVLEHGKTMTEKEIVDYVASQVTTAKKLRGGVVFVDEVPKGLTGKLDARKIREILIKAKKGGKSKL

SMILES | emission wavelength (firefly luciferase; [2]) | further results
C=CCc1c(O)ccc2nc(C3=N[C@@H](C(=O)O)CS3)sc12 [7-allyl-firefly luciferin 35, 7-allyl-firefly luciferin] | 605 nm | 
Nc1ccc2nc(C3=N[C@@H](C(=O)O)CS3)sc2c1 [Aminoluciferin] |  | emission wavelength [1]: approximately 610 nm
O=C(O)C1CSC(c2nc3ccc(O)cc3s2)=N1 (stereo not drawn) [Firefly luciferin] |  | emission wavelength (firefly luciferase; firefly luciferin: enzyme 1.7 μM, exposure five seconds, pH 8.0): 565 nm
C=CCc1c(O)ccc2cc(/C=C/C3=NC(C(=O)O)CS3)ccc12 (stereo not drawn) [compound 21] | approximately 690 nm | emission wavelength (firefly luciferase; reaction with firefly luciferase, substrate solution 2.5 mM, enzyme solution 17 μM, pH 8.0, exposure 60 seconds, listed as FIG. 2): 690 nm
O=C(O)[C@H]1CSC(/C=C/c2ccc3cc(O)ccc3c2)=N1 [compound 39] | 660 nm | 
